Source: patent US10681909B2, “Herbicidal triazoles” (FMC Corporation, priority 2014, dated 2020)

How the values were obtained:
[1] = test system: ryegrass, Italian; test: Test A preemergence; assay type: in vivo, Lolium multiflorum; details: 0 to 100 scale (0 no effect, 100 complete control)
Method in brief: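 Seeds sown in loam soil–sand blend received a directed preemergence soil spray of test chemical in non-phytotoxic solvent with surfactant; postemergence plants, 2 to 10 cm at one- to two-leaf stage, were sprayed with the same formulation. Injury visually rated versus untreated controls after ~10 d in greenhouse, 0–100 scale.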

[2] = test system: crabgrass, large; test: Test C preemergence; assay type: in vivo, Digitaria sanguinalis; details: for Plant response rating (scale of 0 to 100 where 0 is no effect and 100 is complete control): Crabgrass, Large, preemergence; for Crabgrass, Large plant response rating (0 to 100): Preemergence, visual rating after 13 to 15 d
Excerpt: (§1) Seeds of plant species selected from blackgrass (Alopecurus myosuroides), ryegrass, Italian (Italian ryegrass, Lolium multiflorum), wheat (winter wheat, Triticum aestivum), galium (catchweed bedstraw, Galium aparine), corn (Zea mays), crabgrass, large (large crabgrass, Digitaria sanguinalis), foxtail, giant, (giant foxtail, Setaria faberii), johnsongrass (Sorghum halepense), lambsquarters (Chenopodium album), morningglory (Ipomoea coccinea), nutsedge, yellow (yellow nutsedge, Cyperus esculentus), pigweed (Amaranthus retroflexus), ragweed (common ragweed, Ambrosia elatior), soybean (Glycine max), barnyardgrass (Echinochloa crus-galli), oilseed rape (Brassica napus), waterhemp (common waterhemp, Amaranthus rudis), and velvetleaf (Abutilon theophrasti) were planted into a blend of loam soil and sand and treated preemergence with test chemicals formulated in a non-phytotoxic solvent mixture which included a surfactant. At the same time, plants selected from these crop and weed species and also chickweed (common chickweed, Stellaria media), oat, wild (wild oat, Avena fatua), and kochia (Kochia scoparia), were planted in pots containing Sunshine Redi-Earth® planting medium comprising spaghnum peat moss, vermiculite, starter nutrients and dolomitic limestone and treated with postemergence applications of test chemicals formulated in the same manner. Plants ranged in height from 2 to 18 cm (1- to 4-leaf stage) for postemergence treatments. […] A dash (-) response means no test result.

[3] = test system: nutsedge, yellow; test: Test C preemergence; assay type: in vivo, Cyperus esculentus; details: for Plant response rating (scale of 0 to 100 where 0 is no effect and 100 is complete control): Nutsedge, Yellow, preemergence; for Nutsedge, Yellow plant response rating (0 to 100): Preemergence, visual rating after 13 to 15 d
Excerpt: as §1

[4] = test system: ragweed; test: Test C preemergence; assay type: in vivo, Ambrosia elatior; details: for Ragweed plant response rating (0 to 100): Preemergence, visual rating after 13 to 15 d; for Plant response rating (scale of 0 to 100 where 0 is no effect and 100 is complete control): Ragweed, preemergence
Excerpt: as §1

[5] = test system: galium; test: Test D preemergence; assay type: in vivo, Galium aparine; details: for Plant response rating (0 to 100), Galium: 16 g ai/ha, 0 is no effect, 100 is complete control; for Plant response rating: Galium: scale 0 to 100
Excerpt: (§2) Seeds of plant species selected from bluegrass (annual bluegrass, Poa annua), blackgrass (Alopecurus myosuroides), canarygrass (Phalaris minor), chickweed (common chickweed, Stellaria media), galium (catchweed bedstraw, Galium aparine), bromegrass, down (downy bromegrass, Bromus tectorum), Russian thistle (Salsola kali), field poppy (Papaver rhoeas), field violet (Viola arvensis), foxtail, green (green foxtail, Setaria viridis), deadnettle (henbit deadnettle, Lamium amplexicaule), ryegrass, Ital. (Italian ryegrass, Lolium multiflorum), kochia (Kochia scoparia), lambsquarters (Chenopodium album), oilseed rape (Brassica napus), pigweed (Amaranthus retroflexus), chamomile (scentless chamomile, Matricaria inodora), speedwell (bird's-eye speedwell, Veronica persica), barley, spring (spring barley, Hordeum vulgare), wheat, spring (spring wheat, Triticum aestivum), buckwheat, wild (wild buckwheat, Polygonum convolvulus), wild mustard (Sinapis arvensis), oat, wild (wild oat, Avena fatua), radish, wild (wild radish, Raphanus raphanistrum), […]), barley, winter (winter barley, Hordeum vulgare), and wheat, winter (winter wheat, Triticum aestivum) were planted into a silt loam soil and treated preemergence with test chemicals formulated in a non-phytotoxic solvent mixture which included a surfactant. At the same time, these species were planted in pots containing Sunshine Redi-Earth® planting medium comprising spaghnum peat moss, vermiculite, starter nutrients and dolomitic limestone and treated with postemergence applications of the test chemicals formulated in the same manner. Plants ranged in height from 2 to 18 cm (1- to 4-leaf stage). Treated plants and controls were maintained in a controlled growth environment for 14 to 21 d after which time all species were compared to controls and visually evaluated. […] A dash (-) response means no test result.

[6] = test system: chamomile; test: Test D preemergence; assay type: in vivo, Matricaria inodora; details: for Plant response rating (0 to 100), Chamomile: 16 g ai/ha, 0 is no effect, 100 is complete control; for Plant response rating: Chamomile: scale 0 to 100
Excerpt: as §2

[7] = test system: bluegrass; test: Test D postemergence; assay type: in vivo, Poa annua; details: scale 0 to 100
Excerpt: as §2

Row | SMILES | Plant response rating, Ryegrass, Italian ([1]; 125 g ai/ha) | Plant response rating (scale of 0 to 100 where 0 is no effect and 100 is complete control) ([2]; 125 g ai/ha) | Plant response rating (scale of 0 to 100 where 0 is no effect and 100 is complete control) ([2]; 250 g ai/ha) | Crabgrass, Large plant response rating (0 to 100) ([2]; 31 g ai/ha) | Crabgrass, Large plant response rating (0 to 100) ([2]; 62 g ai/ha) | Plant response rating (scale of 0 to 100 where 0 is no effect and 100 is complete control) ([3]; 125 g ai/ha) | Plant response rating (scale of 0 to 100 where 0 is no effect and 100 is complete control) ([3]; 250 g ai/ha) | Nutsedge, Yellow plant response rating (0 to 100) ([3]; 31 g ai/ha) | Nutsedge, Yellow plant response rating (0 to 100) ([3]; 62 g ai/ha) | Ragweed plant response rating (0 to 100) ([4]; 31 g ai/ha) | Ragweed plant response rating (0 to 100) ([4]; 62 g ai/ha) | Plant response rating (scale of 0 to 100 where 0 is no effect and 100 is complete control) ([4]; 125 g ai/ha) | Plant response rating (scale of 0 to 100 where 0 is no effect and 100 is complete control) ([4]; 250 g ai/ha) | Plant response rating (0 to 100), Galium [5] | Plant response rating: Galium ([5]; 62 g ai/ha) | Plant response rating: Galium ([5]; 125 g ai/ha) | Plant response rating (0 to 100), Chamomile [6] | Plant response rating: Chamomile ([6]; 31 g ai/ha) | Plant response rating: Chamomile ([6]; 62 g ai/ha) | Plant response rating: Chamomile ([6]; 125 g ai/ha) | other results
1 | Fc1ccc(-c2nc(OCC(F)(F)F)n(Cc3ccnc(C(F)(F)F)c3)n2)cc1 [Compound 30] | 90 | 100 | 100 | 98 | 100 | 0 | 10 | 0 | 0 | 55 | 65 | 80 | 90 | 70 | 80 | 85 | 30 | 40 | 100 | 100 | Plant response rating, Ryegrass, Italian ([1]; 500 g ai/ha, approx. 10 d): 100; Plant response rating: Bluegrass ([7]; 16 g ai/ha): 65; Plant response rating: Bluegrass ([7]; 31 g ai/ha): 70; Plant response rating: Bluegrass ([7]; 62 g ai/ha): 75; Plant response rating: Bluegrass ([7]; 125 g ai/ha): 80
2 | FC(F)(F)COc1nc(-c2ccc(Cl)cc2)nn1Cc1ccnc(C(F)(F)F)c1 [Compound 31] | 90 | 100 | 100 | 98 | 98 | 5 | 5 | 0 | 0 | 45 | 50 | 65 | 75 | 70 | 80 | 90 | 30 | 95 | 100 | 100 | Plant response rating, Ryegrass, Italian ([1]; 500 g ai/ha): 100; Plant response rating: Bluegrass ([7]; 16 g ai/ha): 50; Plant response rating: Bluegrass ([7]; 31 g ai/ha): 65; Plant response rating: Bluegrass ([7]; 62 g ai/ha): 75; Plant response rating: Bluegrass ([7]; 125 g ai/ha): 85
3 | CCOc1nc(-c2ccc(C(F)(F)F)cc2)nn1Cc1ccnc(C(F)(F)F)c1 [Compound 35, 4-[[5-ethoxy-3-[4-(trifluoromethyl)phenyl]-1H-1,2,4-triazole-1-yl]methyl]-2-(trifluoromethyl)pyridine] | 60 | 100 | 100 | 100 | 100 | 0 | 0 | 0 | 0 | 60 | 75 | 85 | 90 | 70 | 80 | 80 | 95 | 100 | 100 | 100 | Plant response rating, Ryegrass, Italian ([1]; 31 g ai/ha): 30; Plant response rating: Bluegrass ([7]; 16 g ai/ha): 45; Plant response rating: Bluegrass ([7]; 31 g ai/ha): 70; Plant response rating: Bluegrass ([7]; 62 g ai/ha): 75; Plant response rating: Bluegrass ([7]; 125 g ai/ha): 95
